Results on one molecule are retold here after patent US20190022152A1, “MICROBIOME RESPONSE TO AGENTS” (Yeda Research and Development Co., Ltd., priority 2014, published 2019).

For data set [1] the following is noted: cited from earlier work.
The test system of data set [2] is germ-free Swiss-Webster mice. The data set is described as follows: Fecal or culture transplantation into germ-free mice followed by OGTT. It counts as in vivo. An excerpt:
C57Bl/6 WT adult male mice were randomly assigned (without blinding) to treatment groups and were given commercial artificial sweeteners (saccharin-, sucralose- or aspartame-based) or pure saccharin (Sigma Aldrich) in drinking water and fed a high-fat (HFD D12492, 60% Kcal from fat, Research Diets) or standard polysaccharide normal chow (NC) diet (Harlan-Teklad). Compared groups were always fed from the same batch of diet. For antibiotic treatment, mice were given a combination of ciprofloxacin (0.2 gl^−1) and metronidazole ([…]) or vancomycin (0.5 gl^−1) in their drinking water. All antibiotics were obtained from Sigma Aldrich. Adult male outbred Swiss-Webster mice (a widely used mouse strain in germ-free experiments) served as recipients for fecal transplants and were housed in sterile isolators (Park Biosciences). For fecal transplantation experiments, 200 mg of stool (from mouse pellets or human swabs) was resuspended in 5 ml of PBS under anaerobic conditions, vortexed for 3 minutes and allowed to settle by gravity for 2 minutes. Recipient mice were gavaged with 200 μl of the supernatant and maintained on standard NC diet and water throughout the experiment.
Mice were fasted for 6 hours during the light phase, with free access to water. In all groups of mice where the drinking regime was other than water, it was substituted for water for the period of the fasting and glucose or insulin tolerance test. Blood from the tail vein was used to measure glucose levels using a glucometer (Bayer) immediately before and 15, 30, 60, 90 and 120 minutes after oral feeding with 40 mg glucose (J.T. Baker) or intra-peritoneal injection with 0.1 Ukg^−1 Insulin (Biological Industries). Plasma fasting insulin levels were measured in sera collected immediately before the start of GTT using ELISA (Ultra Sensitive Mouse Insulin ELISA Kit, Crystal Chem).
pooled fecal matter from naïve adult WT C57Bl/6 male mice was resuspended in 5 ml PBS in an anaerobic chamber (Coy Laboratory Products, 75% N2, 20% CO2, 5% H2), vortexed for 3 minutes and allowed to settle by gravity for 2 minutes. […] were added to a tube containing Chopped Meat Carbohydrate Broth, PR II (BD) and […] of a 5 mgml-1 saccharin solution or an equal volume of PBS. Every 3 days, 500 ml of culture were diluted to fresh medium containing saccharin or PBS. After 9 days, cultures were used for inoculation of germ-free mice.

As to `O=C1NS(=O)(=O)c2ccccc21` [saccharin], in data set [1] (humans), the “FDA defined ADI (acceptable daily intake) in humans” value is on record as 5 mgkg^−1. In data set [1] (literature values), the reported toxic dose is reported as 6.3 gkg^−1. Also, the “glucose tolerance of germ-free recipients” value in data set [2] (D7 (post exposure) vs D1 stool from human NAS responders after 7 days commercial saccharin, P<0.004, P<0.02) is “significant glucose intolerance”; in data set [2] (D7 vs D1 stool from two human NAS non-responders) it was “normal glucose tolerance”; in data set [2] (donors HFD-consuming mice drinking pure saccharin vs water, p<0.004), “replicated the glucose intolerance phenotype”; in data set [2] (recipients of in vitro saccharin-treated (5 mgml^−1) fecal culture vs control culture, 6 days, p<0.002) it was “significantly higher glucose intolerance”.
